# How the values were obtained:
# MDA-MB-436 spheroids = test: Spheres / stem-like spheroids; assay type: cell-based, human; details: increasing doses of MitoQ, over 1 week
# Procedure: 3D models were used to obtain an enriched population in stem cells. For that, 10^4 MDA-MB-231, SkBr3 or MDA-MB-436 cancer cells were grown in suspension using 10 cm dishes coated with Polyhema in stem-cell medium: DMEM/F-12 (Gibco®, cat #11320033) supplemented with 100 units/mL penicillin, 100 μg/mL streptomycin, 20 μL/mL B27 (Gibco®, cat #17504044), 20 ng/mL human recombinant epithelial growth factor (EGF) (Peprotech®, cat #AF-100-15), 10 ng/mL basic fibroblast growth factor (bFGF; Peprotech®, cat #100-18B) and 2.5 mg/mL insulin. When spheres reached around 100 μm in diameter, they were washed with PBS and dissociated with accutase (Stem Cell Technology®, cat #07920) in order to have single cells again. […] Images were captured on Axiovert™ 40 CFL microscope equipped with a MRC camera. At the end of the treatment, living cells were collected for RNA extraction.
# Stem like-spheroids were prepared by seeding 5,000 MDA-MB-231, SkBr3 or MDA-MB-436 dissociated spheres/well in ultra-Low attachment 96-well plates (Corning®, cat #7007) in stem cell medium supplemented as described above. […] Spheroid growth was monitored using an Axio Observer live-cell phase contrast microscope (Zeiss®).
# SkBr3 cells = test: Cell numbers, chemotherapy ±MitoQ, crystal violet; assay type: cell-based, human; details: increasing doses of chemotherapy ±100 nM MitoQ; 24-72 h
# Procedure: (§1) To test the effects of combination treatments on cell numbers, MDA-MB-231 or SkBr3 cancer cells were plated in 96-well plates and treated with increasing concentrations of chemotherapeutic drug ±MitoQ for 24 h (epirubicin), 48 h (doxorubicin, 5-FU, cisplatin, paclitaxel) or 72 h (gemcitabine). Cells were then fixed in 11% glutaraldehyde and stained with crystal violet. The dye retained by the cells was solubilized in 10% acetic acid, and the optical density (570 nm) was measured using a SpectraMax i3 spectrophotometer equipped with a MiniMax™ imaging cytometer.
# MDA-MB-231 cells = test: Cell numbers, chemotherapy ±MitoQ, crystal violet; assay type: cell-based, human; details: increasing doses of chemotherapy ±100 nM MitoQ; 24-72 h
# Procedure: as §1
# [1] = test system: MDA-MB-231 and SkBr3 cells; test: RNA sequencing, transcripts common to both cell lines; assay type: cell-based, human; details: MitoQ 500 nM, 48 h
# Procedure: MDA-MB-231 and SkBr3 cancer cells were treated ±MitoQ for 48 h. Total mRNA was then extracted using the NucleoSpin RNA kit (Macherey-Nagel®), including DNAse treatment in the intermediary steps. mRNAs were quantified using the Qubit BR dsRNA assay kit (Thermo Fisher Scientific®), and mRNA integrity was evaluated on the Agilent 2100 Bioanalyzer using the RNA 6000 nano kit (Agilent®). All samples had RNA integrity number values ≥7.5. Libraries from control and treated samples were prepared starting from 150 ng of total mRNA using the KAPA RNA HyperPrep Kit with RiboErase (HMR) kit (KAPA Biosystems®) following the manufacturer's recommendations (KR1351—v1.16). Libraries were equimolarly pooled and sequenced on a single lane of an Illumina® NovaSeq 6000 platform. All libraries were sequenced at a depth of >50 million paired-end reads (2×100 bp reads) per sample. All sequencing data were analyzed using the Automated Reproducible MOdular workflow for preprocessing and differential analysis of RNAseq data (ARMOR) pipeline. In this pipeline, reads underwent a quality check using FastQC. Quantification and quality control results were summarized in a MultiQC report before being mapped using Salmon to the transcriptome index that was built using all Ensembl cDNA sequences obtained in the Homo_sapiens.GRCh38.cdna.all.fa file. Then, estimated transcript abundances from Salmon were imported into R using the tximeta package, and analyzed for differential gene expression with edgeR. To get a robust signature, only genes with |log 2 Fold Change|>1 and P<0.01 were retained.
# While EMT and sternness markers are usual suspects when testing antimetastatic strategies, it was decided to go deeper in the understanding of the molecular effects of MitoQ, and performed unbiased RNA sequencing (RNAseq) using cells treated for 48 h±MitoQ (500 nM). […] On independent samples upon the same conditions (including |log 2 Fold Change|>1 and P<0.01), RT-qPCR on the two cell lines validated all genes as potential biomarkers of human breast cancer cell response to MitoQ, to the exception of EID1, PEG10, FTH1 and NUPR1 (FIG. 12A-M and Table 7).
# [2] = test system: Human MDA-MB-231 breast cancer cells; test: Cell viability, crystal violet; assay type: cell-based; details: increasing doses of cisplatin ±100 nM MitoQ, 48 h
# Procedure: […] The solution was carefully removed and plates were washed twice with water. After drying protected by light, cells were resuspended in 50 μl DMSO and the plates were read with a Victor X4 plate reader (Perkin®).
# [3] = test system: primary breast tumors of MMTV-PyMT mice; test: RT-qPCR of primary breast tumors; assay type: in vivo; details: FEC + MitoQ 18 mg/kg daily oral; mouse transcripts; P<0.01; read-out: fold induction of SLC7A11, SERPINE1 and TXNRD1 (each independently)
# Procedure: Total mRNA from MDA-MB-231, SkBr3 and MDA-MB-436 cells treated ±MitoQ for 48 h was extracted using the NucleoSpin RNA Kit (Macherey-Nagel®). Total mRNA from primary tumors was extracted with Tri reagent (Molecular Research Center®, Cat #TR118). mRNAs were quantified by the Qubit BR dsRNA assay kit (Thermo Fisher Scientific®), and mRNA integrity was evaluated on an Agilent® 2100 Bioanalyzer with the RNA 6000 nano kit (Agilent®). It was reverse transcribed in complementary DNA using the High-Capacity cDNA Reverse Transcription Kit (Applied Biosystems®, cat #4368814) according to manufacturer's protocol. Complementary DNA (500 ng) was amplified by real time quantitative PCR (RT-qPCR) using the low ROX SYBR Master Mix dTTP Blue (Eurogentec®) and primers listed in Table 5 and Table 6 on a ViiA 7 Real-Time PCR System (Thermo Fisher Scientific®). Gene expression was normalized to β-actin gene expression.
# Female FVB/N-Tg(MMTV-PyMT)634Mul/J (MMTV-PyMT) mice that express the polyomavirus middle T antigen spontaneously develop orthotropic multifocal breast adenocarcinomas that spontaneously disseminate metastases to the lungs during mouse lifetime. […] They were sacrificed at 16 weeks-old, and the lungs insufflated with Indian ink for metastasis quantification as described above. […]
# [4] = |log 2 fold change|>1 and P<0.01
smiles,measurement,setting,value
COC1=C(OC)C(=O)C(CCCCCCCCCC[P+](c2ccccc2)(c2ccccc2)c2ccccc2)=C(C)C1=O [MitoQ],spheroid formation,MDA-MB-436 spheroids,dose-dependently retarded
same,"cytostatic/cytotoxic effects of doxorubicin, epirubicin, 5-fluorouracil (5-FU), cisplatin, paclitaxel and gemcitabine",SkBr3 cells,did not alter
same,"cytostatic/cytotoxic effects of doxorubicin, epirubicin, 5-fluorouracil (5-FU), cisplatin, paclitaxel and gemcitabine",MDA-MB-231 cells,did not alter
same,EID1 and PEG10 gene transcripts,"[1]; RNAseq, both cell lines",downregulated
same,"PHGDH-1, SLC7A11, SERPINE1, FTH1, TXNRD1, PSAT1, PCK2, G6PD, ASNS, SLC6A9 and NUPR1 gene transcripts","[1]; RNAseq, both cell lines",upregulated
same,number of commonly induced transcripts,[1]; [4],11
same,number of commonly repressed transcripts,[1]; [4],2
same,"cancer cell killing activity, cisplatin combined with MitoQ",[2],did not interfere
same,fold induction at 18 mg/kg,[3],≥ 2
